Results taken from US11524966B1 (Valo Early Discovery, Inc., priority 2017, dated 2022).

The compounds below were run against T1, USP28 (His-tagged USP28-FL-mammalian) (Homo sapiens, UniProt Q96RU2) (assay: Ubiquitin-Rhodamine 110 Assay for USP28 Activity, Example A-1(a)). Conditions: Ubiquitin-Rhodamine 110 assay, Example A-1(a); read-out: USP28 A-1(a) IC50 range.
T1 construct: Expression of USP28 (1-1077)-TEV-6*His (pTT5 vector); made in house; host or cells: Expi293f cells (pTT5 vector)
T1 sequence (Q96RU2 1-1077): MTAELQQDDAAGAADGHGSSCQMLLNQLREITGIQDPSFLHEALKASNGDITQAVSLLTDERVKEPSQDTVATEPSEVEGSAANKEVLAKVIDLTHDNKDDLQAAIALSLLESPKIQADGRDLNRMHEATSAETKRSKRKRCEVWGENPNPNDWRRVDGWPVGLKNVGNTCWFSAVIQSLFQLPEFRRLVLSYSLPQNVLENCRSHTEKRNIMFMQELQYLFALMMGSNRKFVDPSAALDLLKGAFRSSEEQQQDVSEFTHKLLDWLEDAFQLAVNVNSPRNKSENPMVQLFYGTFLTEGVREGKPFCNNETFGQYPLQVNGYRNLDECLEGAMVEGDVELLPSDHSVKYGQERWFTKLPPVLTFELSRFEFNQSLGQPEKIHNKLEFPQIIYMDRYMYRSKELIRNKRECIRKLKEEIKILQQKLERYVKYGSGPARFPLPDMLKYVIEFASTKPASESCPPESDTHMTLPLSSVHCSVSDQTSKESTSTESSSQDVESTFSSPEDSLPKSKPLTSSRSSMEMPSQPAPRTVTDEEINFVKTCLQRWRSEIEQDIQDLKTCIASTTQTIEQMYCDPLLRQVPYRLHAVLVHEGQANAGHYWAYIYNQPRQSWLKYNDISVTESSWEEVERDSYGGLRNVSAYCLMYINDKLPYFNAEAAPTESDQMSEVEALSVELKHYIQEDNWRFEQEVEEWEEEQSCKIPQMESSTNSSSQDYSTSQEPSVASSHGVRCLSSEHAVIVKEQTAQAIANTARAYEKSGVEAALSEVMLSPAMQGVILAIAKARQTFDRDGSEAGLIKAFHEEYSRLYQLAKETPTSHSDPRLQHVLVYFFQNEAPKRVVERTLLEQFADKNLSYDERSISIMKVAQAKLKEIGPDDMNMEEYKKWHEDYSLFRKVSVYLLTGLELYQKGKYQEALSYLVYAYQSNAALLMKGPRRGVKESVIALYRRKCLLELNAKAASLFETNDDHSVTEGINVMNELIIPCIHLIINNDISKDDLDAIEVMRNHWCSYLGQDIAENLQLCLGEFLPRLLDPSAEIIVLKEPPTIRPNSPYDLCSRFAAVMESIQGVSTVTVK
Assay type: biochemical
Summary of the method: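 IC50 from 4-parameter logistic fit of percent inhibition versus no-enzyme and DMSO controls; compounds 25 μM to 1.3 nM, 3-fold. Ub-Rh110 cleavage (25 nM, below Km) by […] mammalian-expressed USP28-FL-His ran 45 min at room temperature, stopped with 10 mM citric acid, read ex 485/em 535.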

Q: For `Cc1ccc2c(N)c(C(=O)N[C@H]3COc4cc(N5C[C@@H](N)[C@H](OC(F)(F)F)C5)ccc4C3)sc2n1` (single isomer, unassigned) [Example 3-9], which IC50 is on record?
A: 50 to 200 nM

Q: With `Cc1ccc2c(N)c(C(=O)N[C@H]3COc4cc(N5C[C@H](OC(F)(F)F)[C@@H](N)C5)ccc4C3)sc2n1` (single isomer, unassigned) [Example 3-10] as the compound, how does the IC50 read?
A: 50 to 200 nM

Q: `Cc1ccc2c(N)c(C(=O)N[C@H]3COc4c(cc(F)c(N5CCNCC5)c4F)C3)sc2n1` (single isomer, unassigned) [Example 3-17] was tested. Which IC50 did it give?
A: 1 to 50 nM

Q: How did the IC50 turn out when `Cc1ccc2c(N)c(C(=O)N[C@@H]3COc4c(cc(F)c(N5CCNCC5)c4F)C3)sc2n1` (single isomer, unassigned) [Example 3-18] was run?
A: 200 to 2000 nM

Q: Which IC50 does the source give for `Cc1ccc2c(N)c(C(=O)N[C@H]3COc4cc(N5C[C@H](N)CC56COC6)ccc4C3)sc2n1` (single isomer, unassigned) [Example 351] here?
A: 1 to 50 nM

Q: For `Cc1ccc2c(N)c(C(=O)N[C@H]3COc4cc(N5C[C@@H](N)CC56COC6)ccc4C3)sc2n1` (single isomer, unassigned) [Example 352], which IC50 is on record?
A: 1 to 50 nM

Q: For `O=C(N[C@H]1CCc2c(c(F)cc(N3CC4CCC(C3)N4)c2C(F)F)C1)c1cnc2c(c1)[C@@H]1C[C@@H]1CN2` (single isomer, unassigned) [Example 359], which IC50 is on record?
A: > 2000 nM

Q: `O=C(N[C@H]1CCc2c(c(F)cc(N3CC4CCC(C3)N4)c2C(F)F)C1)c1cnc2c(c1)[C@H]1C[C@H]1CN2` (single isomer, unassigned) [Example 360] was tested. Which IC50 did it give?
A: 1 to 50 nM

Q: How did the IC50 turn out when `O=C(N[C@@H]1CCc2c(c(F)cc(N3CC4CCC(C3)N4)c2C(F)F)C1)c1cnc2c(c1)[C@@H]1C[C@@H]1CN2` (single isomer, unassigned) [Example 361] was run?
A: > 2000 nM

Q: Which IC50 does the source give for `O=C(N[C@@H]1CCc2c(c(F)cc(N3CC4CCC(C3)N4)c2C(F)F)C1)c1cnc2c(c1)[C@H]1C[C@H]1CN2` (single isomer, unassigned) [Example 362] here?
A: 200 to 2000 nM

Q: With `Cc1ccc2c(N)c(C(=O)N[C@H]3COc4cc(N5C[C@H](N)[C@@H](F)C5)ccc4C3)sc2n1` [Example 3-7, 3-amino-N-((R)-7-((3S,4S)-3-amino-4-fluoropyrrolidin-1-yl)chroman-3-yl)-6-methylthieno[2,3-b]pyridine-2-carboxamide] as the compound, how does the IC50 read?
A: 1 to 50 nM

Q: How did the IC50 turn out when `Cc1ccc2c(N)c(C(=O)N[C@H]3COc4cc(N5C[C@@H](N)[C@H](F)C5)ccc4C3)sc2n1` [Example 3-8, 3-amino-N-((R)-7-((3R,4R)-3-amino-4-fluoropyrrolidin-1-yl)chroman-3-yl)-6-methylthieno[2,3-b]pyridine-2-carboxamide] was run?
A: 1 to 50 nM

Q: `Cc1ccc2c(N)c(C(=O)N[C@H]3COc4cc(N5CCN[C@@H](C(F)(F)F)C5)ccc4C3)sc2n1` [Example 3-11, 3-amino-6-methyl-N-((R)-7-((R)-3-(trifluoromethyl)piperazin-1-yl)chroman-3-yl)thieno[2,3-b]pyridine-2-carboxamide] was tested. Which IC50 did it give?
A: 50 to 200 nM

Q: For `Cc1ccc2c(N)c(C(=O)N[C@H]3COc4cc(N5CCN[C@H](C(F)(F)F)C5)ccc4C3)sc2n1` [Example 3-12, 3-amino-6-methyl-N-((R)-7-((S)-3-(trifluoromethyl)piperazin-1-yl)chroman-3-yl)thieno[2,3-b]pyridine-2-carboxamide], which IC50 is on record?
A: 50 to 200 nM

Q: For `Cc1ccc2c(N)c(C(=O)N[C@H]3COc4cc(N5CC[C@]6(CCCNC6)C5)ccc4C3)sc2n1` [Example 3-13, N-((R)-7-((S)-2,7-diazaspiro[4.5]decan-2-yl)chroman-3-yl)-3-amino-6-methylthieno[2,3-b]pyridine-2-carboxamide], which IC50 is on record?
A: 1 to 50 nM

Q: Which IC50 does the source give for `Cc1ccc2c(N)c(C(=O)N[C@H]3COc4cc(N5CC[C@@]6(CCCNC6)C5)ccc4C3)sc2n1` [Example 3-14, N-((R)-7-((R)-2,7-diazaspiro[4.5]decan-2-yl)chroman-3-yl)-3-amino-6-methylthieno[2,3-b]pyridine-2-carboxamide] here?
A: 1 to 50 nM

Q: How did the IC50 turn out when `O=C(N[C@H]1COc2cc(N3CC4CCC(C3)N4)ccc2C1)c1cnc2c(c1)[C@@H]1C[C@@H]1CN2` [Example 3-15, (1aS,7bR)-N-((3R)-7-(3,8-diazabicyclo[3.2.l]octan-3-yl)chroman-3-yl)-1a,2,3,7b-tetrahydro-1H-cyclopropa[c][1,8]naphthyridine-6-carboxamide] was run?
A: 1 to 50 nM

Q: How did the IC50 turn out when `O=C(N[C@H]1COc2cc(N3CC4CCC(C3)N4)ccc2C1)c1cnc2c(c1)[C@H]1C[C@H]1CN2` [Example 3-16, (1aR,7bS)-N-((3R)-7-(3,8-diazabicyclo[3.2.1]octan-3-yl)chroman-3-yl)-1a,2,3,7b-tetrahydro-1H-cyclopropa[c][1,8]naphthyridine-6-carboxamide] was run?
A: 200 to 2000 nM

Q: How did the IC50 turn out when `Cc1ccc2c(N)c(C(=O)N[C@H]3COc4cc(N5CCC(F)(F)CC5)ccc4C3)sc2n1` [Example 5-1, (R)-3-amino-N-(7-(4,4-difluoropiperidin-1-yl)chroman-3-yl)-6-methylthieno[2,3-b]pyridine-2-carboxamide] was run?
A: 1 to 50 nM

Q: `Cc1ccc2c(N)c(C(=O)N[C@H]3COc4cc(N5CCS(=O)(=O)CC5)ccc4C3)sc2n1` [Example 5-2, (R)-3-amino-N-(7-(1,1-dioxidothiomorpholino)chroman-3-yl)-6-methylthieno[2,3-b]pyridine-2-carboxamide] was tested. Which IC50 did it give?
A: 1 to 50 nM

Q: Which IC50 does the source give for `Cc1ccc2c(N)c(C(=O)N[C@H]3COc4cc(N5CC(O)(C(F)(F)F)C5)ccc4C3)sc2n1` [Example 5-3, (R)-3-amino-N-(7-(3-hydroxy-3-(trifluoromethyl)azetidin-1-yl)chroman-3-yl)-6-methylthieno[2,3-b]pyridine-2-carboxamide] here?
A: 1 to 50 nM

Q: With `Cc1ccc2c(N)c(C(=O)N[C@H]3COc4cc(N5CC6COCC(C5)C6(F)F)ccc4C3)sc2n1` [Example 5-4, 3-amino-N-((3R)-7-(9,9-difluoro-3-oxa-7-azabicyclo[3.3.1]nonan-7-yl)chroman-3-yl)-6-methylthieno[2,3-b]pyridine-2-carboxamide] as the compound, how does the IC50 read?
A: 1 to 50 nM

Q: For `Cc1ccc2c(N)c(C(=O)N[C@H]3COc4cc(N5CCC(C(=O)O)CC5)ccc4C3)sc2n1` [Example 6-1, (R)-1-(3-(3-Amino-6-methylthieno[2,3-b]pyridine-2-carboxamido)chroman-7-yl)piperidine-4-carboxylic Acid], which IC50 is on record?
A: 200 to 2000 nM

Q: `Cc1ccc2c(N)c(C(=O)N[C@H]3COc4cc(N5CC[C@@H](C(=O)O)C5)ccc4C3)sc2n1` [Example 6-2, (R)-1-((R)-3-(3-amino-6-methylthieno[2,3-b]pyridine-2-carboxamido)chroman-7-yl)pyrrolidine-3-carboxylic acid] was tested. Which IC50 did it give?
A: 50 to 200 nM

Q: With `Cc1ccc2c(N)c(C(=O)N[C@H]3COc4cc(N5CC[C@H](C(=O)O)C5)ccc4C3)sc2n1` [Example 6-3, (S)-1-((R)-3-(3-amino-6-methylthieno[2,3-b]pyridine-2-carboxamido)chroman-7-yl)pyrrolidine-3-carboxylic acid] as the compound, how does the IC50 read?
A: 50 to 200 nM

Q: Which IC50 does the source give for `Cc1cnc2c(N)c(C(=O)N[C@H]3CCc4cc(N5CC(C(=O)O)C5)ccc4C3)sc2n1` [Example 6-4, (S)-1-(6-(7-amino-3-methylthieno[2,3-b]pyrazine-6-carboxamido)-5,6,7,8-tetrahydronaphthalen-2-yl)azetidine-3-carboxylic acid] here?
A: 200 to 2000 nM

Q: `Cc1ccc2c(N)c(C(=O)N[C@H]3COc4cc(N5CCC(O)CC5)ccc4C3)sc2n1` [Example 7-1, (R)-3-amino-N-(7-(4-hydroxypiperidin-1-yl)chroman-3-yl)-6-methylthieno[2,3-b]pyridine-2-carboxamide] was tested. Which IC50 did it give?
A: 1 to 50 nM

Q: `Cc1ccc2c(N)c(C(=O)N[C@H]3COc4cc(N5CCC[C@](C)(O)C5)ccc4C3)sc2n1` [Example 7-2] was tested. Which IC50 did it give?
A: 1 to 50 nM

Q: For `Cc1ccc2c(N)c(C(=O)N[C@H]3COc4cc(N5CCC[C@@](C)(O)C5)ccc4C3)sc2n1` [Example 7-3, 3-amino-N-((R)-7-((R)-3-hydroxy-3-methylpiperidin-l-yl)chroman-3-yl)-6-methylthieno[2,3-b]pyridine-2-carboxamide], which IC50 is on record?
A: 1 to 50 nM

Q: For `Cc1ccc2c(N)c(C(=O)N[C@H]3CCc4nc(N5C[C@H](N)[C@H](C(F)F)C5)ccc4C3)sc2n1` [Example 345, 3-amino-N-[(6S)-2-[(3R,4R)-3-amino-4-(difluoromethyl)pyrrolidin-1-yl]-5,6,7,8-tetrahydroquinolin-6-yl]-6-methylthieno[2,3-b]pyridine-2-carboxamide], which IC50 is on record?
A: 50 to 200 nM
